Results from the NIST ThermoML archive (doi:10.1021/acs.jced.7b00378).
± gives the expanded uncertainty stated by the source.

Tests used:
[1] = wn = mass fraction of the nth substance listed; conditions: 100 kPa, Liquid, Vibrating tube method
[2] = refractive index (Na D-line) (dimensionless); wn = mass fraction of the nth substance listed; conditions: 100 kPa, Liquid, Standard Abbe refractometry

In the case of O=S(=O)([O-])[O-].[Mg+2] [magnesium sulfate] + O, the mass density ([1]; 288.15 K, w1 = 0.2409) is reported as 1274.47 ± 1.1 kg/m3, the mass density ([1]; 298.15 K, w1 = 0.2768) is reported as 1302.41 ± 1.1 kg/m3 and the mass density ([1]; 308.15 K, w1 = 0.2974) is reported as 1325.91 ± 1.1 kg/m3. For the same compound, the refractive index ([2]; 288.15 K, w1 = 0.2409) was 1.384 ± 0.002, the refractive index ([2]; 298.15 K, w1 = 0.2768) was 1.3895 ± 0.0021 and the refractive index ([2]; 308.15 K, w1 = 0.2974) was 1.3902 ± 0.0021.
